Experimental data taken from article PMC6494997, “Studies on Isoniazid Derivatives through a Medicinal Chemistry Approach for the Identification of New Inhibitors of Urease and Inflammatory Markers” (Scientific Reports, 2019).
In brackets after ≈: the same amount, converted by molar mass. Like-named read-outs stand apart in the source and are kept apart here.

Legend:
[1] = target: T1, urease (Canavalia ensiformis, UniProt P07374); assay: biochemical
Procedure: During the experiments all the compounds were evaluated at 0.5 mM each in triplicate.

[2] = target: T1, urease; details: reported literature value of the standard; read-out: Urease Inhibition Activity IC50 ± SEM (Reported) (converted); cited from earlier work
[3] = test system: ROS from zymosan activated whole blood cells; assay: Oxidative burst assay (in vitro anti-inflammatory, ROS inhibition); type: cell-based, human; details: for Anti-Inflammatory Activity IC50 ± SD: observed, ROS inhibition, zymosan activated whole blood cells, screening concentration 25 µg/mL, <50% inhibition = inactive; for IC50: Homo sapiens, Whole blood cell, read-out: Anti-Inflammatory Activity IC50 ± SD
Procedure: In this experiment all the compounds were evaluated at 25 µg/mL, each in triplicate.
All studies on human blood cells was carried out after an approval from independent ethics committee (Prof. Dr. Ghazala H. Rizwani Chair, IEC, Prof. Qamar Amin, Prof, Dr. Muddasir Uddin, Dr. Shahnaz Ghazi, Dr. SamiuzZaman, Prof. Dr. Ahsana Dar Farooq, Dr. M. Raza Shah member IEC), International Center for Chemical and Biological Sciences, University of Karachi, No: ICCBS/IEC-008-BC-2015/Protocol/1.0. Informed consents were obtained from the volunteers before drawing the blood. All the experiments were performed in accordance with relevant guidelines and regulations.

[4] = in vitro; details: mouse
Procedure: (§1) In this experiment all the compounds were evaluated at 30 µM each in triplicate.

[5] = test system: 3T3 normal (mouse fibroblast) cell line; assay: 3T3 cytotoxicity assay (MTT); details: read-out: Cytotoxicity (3T3 Cell line) IC50 ± SD; observed; screened at 30 µM; <50% inhibition at 30 µM = inactive
Procedure: as §1

[6] = test system: 3T3 normal (mouse fibroblast) cell line
Procedure: as §1

[7] = test system: ROS from zymosan activated whole blood cells; set-up: method as in PMID 6178787, PMID 28202019; details: reported literature value of the standard; cited from earlier work
[8] = 3T3 cytotoxicity assay (MTT); details: mouse
Procedure: as §1

[9] = observed, screening concentration 0.5 mM, <50% inhibition = inactive, Insoluble = partially soluble in HPLC methanol of the protocol, read-out: Urease Inhibition Activity IC50 ± SEM
[10] = observed, screening concentration 0.5 mM, <50% inhibition = inactive, Insoluble = partially soluble in HPLC methanol of the protocol

T1 sequence (P07374 whole entry, looked up): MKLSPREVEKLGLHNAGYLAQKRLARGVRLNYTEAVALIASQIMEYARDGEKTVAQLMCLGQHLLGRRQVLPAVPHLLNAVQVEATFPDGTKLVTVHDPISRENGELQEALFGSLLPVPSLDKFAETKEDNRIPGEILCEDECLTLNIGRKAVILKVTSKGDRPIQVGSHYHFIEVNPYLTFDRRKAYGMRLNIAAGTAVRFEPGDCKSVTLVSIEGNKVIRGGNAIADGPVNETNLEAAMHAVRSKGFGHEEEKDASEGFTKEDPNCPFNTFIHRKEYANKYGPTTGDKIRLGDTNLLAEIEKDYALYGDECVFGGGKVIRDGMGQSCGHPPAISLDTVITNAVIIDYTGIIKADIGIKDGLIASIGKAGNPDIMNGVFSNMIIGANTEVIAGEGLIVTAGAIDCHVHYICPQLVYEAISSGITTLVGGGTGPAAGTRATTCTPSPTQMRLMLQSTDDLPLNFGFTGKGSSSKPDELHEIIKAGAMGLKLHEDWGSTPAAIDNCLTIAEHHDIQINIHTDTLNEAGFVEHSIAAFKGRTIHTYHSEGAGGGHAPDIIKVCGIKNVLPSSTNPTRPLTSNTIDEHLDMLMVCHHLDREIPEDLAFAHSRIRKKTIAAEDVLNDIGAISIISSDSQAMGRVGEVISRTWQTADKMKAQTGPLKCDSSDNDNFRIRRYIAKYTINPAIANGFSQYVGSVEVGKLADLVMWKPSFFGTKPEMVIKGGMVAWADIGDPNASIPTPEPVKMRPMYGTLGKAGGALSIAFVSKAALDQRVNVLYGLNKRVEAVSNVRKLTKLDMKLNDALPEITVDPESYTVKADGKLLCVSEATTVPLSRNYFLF

Structure (SMILES) | Anti-Inflammatory Activity IC50 ± SD [3] | melting point [°C] | IC50 [4] [µM] | IC50 [1] [µM] | further results
CC(=O)NO [Aetohydaoxamic acid, acetohydroxamic acid, reference compound] | – | – | – | – | IC50 [1, 9]: 20.3 ± 0.4 µM; IC50 [2]: 17.2 µM
O=C(NNC(=S)Nc1ccccc1F)c1ccncc1 [Compound 3, N-(2-Fluorophenyl)-2-isonicotinoylhydrazinecarbothioamide] | Inactive | 241 to 242 | > 30 | – | Urease Inhibition Activity IC50 ± SEM [1, 10]: Inactive^c
O=C(NNC(=S)Nc1cccc(Cl)c1Cl)c1ccncc1 [Compound 4, N-(2,3-Dichlorophenyl)-2-isonicotinoylhydrazinecarbothioamide] | Inactive | 198 to 199 | > 30 | 38.8 ± 0.35 | –
O=C(NNC(=S)Nc1cc(Cl)ccc1Cl)c1ccncc1 [Compound 5, N-(2,5-Dichlorophenyl)-2-isonicotinoylhydrazinecarbothioamide] | – | 172 to 173 | > 30 | 36.5 ± 0.14 | IC50 [3]: 18.5 ± 1 µg/mL (≈ 54.2 µM)
O=C(NNC(=S)Nc1c(Cl)cccc1Cl)c1ccncc1 [Compound 6, N-(2,6-Dichlorophenyl)-2-isonicotinoylhydrazinecarbothioamide] | Inactive | 127 to 128 | > 30 | – | Urease Inhibition Activity IC50 ± SEM [1, 10]: Insoluble
O=C(NNC(=S)Nc1c(F)cccc1F)c1ccncc1 [Compound 7, N-(2,6-Difluorophenyl)-2-isonicotinoylhydrazinecarbothioamide] | Inactive | 248 to 249 | > 30 | 46.3 ± 0.43 | –
O=C(NNC(=S)Nc1cc(C(F)(F)F)ccc1Cl)c1ccncc1 [Compound 8, N-(2-Chloro-5-(trifluoromethyl)phenyl)-2-isonicotinoylhydrazinecarbothioamide] | Inactive | 183 to 184 | > 30 | 44.4 ± 0.43 | –
O=C(NNC(=S)Nc1ccc(Cl)c(C(F)(F)F)c1)c1ccncc1 [Compound 9, N-(4-Chloro-3-(trifluoromethyl)phenyl)-2 isonicotinoylhydrazinecarbothioamide] | – | 231 to 232 | > 30 | 14.2 ± 1.38 | IC50 [3]: 26.7 ± 2.5 µg/mL (≈ 71.2 µM)
N#Cc1ccc(NC(=S)NNC(=O)c2ccncc2)cc1 [Compound 10, N-(4-Cyanophenyl)-2-isonicotinoylhydrazinecarbothioamide] | Inactive | 162 to 163 | > 30 | 15.7 ± 1.32 | –
O=C(NNC(=S)Nc1ccc(OC(F)(F)F)cc1)c1ccncc1 [Compound 11, 2-Isonicotinoyl-N-(4-(trifluoromethoxy)phenyl) hydrazine carbothioamide] | Inactive | – | – | – | IC50 [1, 9]: 13.2 ± 1.64 µM; IC50 [5]: > 30 µM
O=C(NNC(=S)Nc1c(F)c(F)c(F)c(F)c1F)c1ccncc1 [Compound 12, 2-Isonicotinoyl-N-(perfluorophenyl) hydrazinecarbothioamide] | 27.7 ± 2.4 µg/mL | – | – | – | IC50 [6]: > 30 µM; IC50 [1, 9]: 12.3 ± 1.04 µM
O=C(NNC(=S)NC1CCCC1)c1ccncc1 [Compound 13, N-Cyclopentyl-2-isonicotinoylhydrazinecarbothioamide] | Inactive | 223 to 224 | > 30 | 13.6 ± 1.61 | –
O=C(NNC(=S)Nc1ccccc1Br)c1ccncc1 [Compound 14, N-(2-Bromophenyl)-2-isonicotinoylhydrazinecarbothioamide] | Inactive | 156 to 157 | > 30 | 35.8 ± 1.89 | –
O=C(NNC(=S)Nc1ccc(F)cc1F)c1ccncc1 [Compound 15, N-(2,4-Difluorophenyl)-2-isonicotinoylhydrazinecarbothioamide] | Inactive | 191 to 192 | > 30 | 34.1 ± 0.45 | –
O=C(NNC(=S)Nc1cccc(F)c1)c1ccncc1 [Compound 16, N-(3-Fluorophenyl)-2-isonicotinoylhydrazinecarbothioamide] | – | 174 to 175 | > 30 | 21.5 ± 1.3 | IC50 [3]: 29.7 ± 1.7 µg/mL (≈ 102 µM)
O=C(NNC(=S)Nc1cccc(I)c1)c1ccncc1 [Compound 17, N-(3-Iodophenyl)-2-isonicotinoylhydrazinecarbothioamide] | – | 192 to 193 | > 30 | 14.7 ± 1.01 | IC50 [3]: 36.9 ± 3 µg/mL (≈ 92.7 µM)
O=C(NNC(=S)Nc1ccc(Cl)cc1)c1ccncc1 [Compound 18, N-(4-Chlorophenyl)-2-isonicotinoylhydrazine carbothioamide] | Inactive | – | 29.5 ± 1.9 | 26.3 ± 1.59 | –
O=C(NNC(=S)Nc1ccc(F)cc1)c1ccncc1 [Compound 19, N-(4-Fluorophenyl)-2-isonicotinoylhydrazinecarbothioamide] | Inactive | 191 to 192 | > 30 | 12.7 ± 0.8 | –
COc1ccc(NC(=S)NNC(=O)c2ccncc2)cc1 [Compound 20, 2-Isonicotinoyl-N-(4-methoxyphenyl) hydrazinecarbothioamide] | Inactive | – | – | – | IC50 [6]: > 30 µM; IC50 [1, 9]: 22 ± 1.15 µM
O=C(NNC(=S)Nc1cc(Cl)c(Cl)cc1Cl)c1ccncc1 [Compound 21, Isonicotinoyl-N-(2,4,5-trichlorophenyl) hydrazinecarbothioamide] | Inactive | – | – | – | IC50 [6]: > 30 µM; IC50 [1, 9]: 28.2 ± 1.48 µM
O=C(NNC(=S)Nc1cccc(Br)c1)c1ccncc1 [Compound 22, N-(3-Bromophenyl)-2-isonicotinoylhydrazinecarbothioamide] | – | 192 to 193 | > 30 | 22.1 ± 1.91 | IC50 [3]: 25.1 ± 0.4 µg/mL (≈ 71.5 µM)
O=C(NNC(=S)NC1CCCCC1)c1ccncc1 [Compound 23, N-Cyclohexyl-2-isonicotinoylhydrazinecarbothioamide] | – | 212 to 213 | > 30 | 22.4 ± 1.83 | IC50 [3]: 12.3 ± 1.2 µg/mL (≈ 44.2 µM)
O=C(NNC(=S)Nc1ccccc1)c1ccncc1 [Compound 24, 2-Isonicotinoyl-N-phenylhydrazinecarbothioamide] | Inactive | – | > 30 | 63.2 ± 2 | –
CCCCCCNC(=S)NNC(=O)c1ccncc1 [Compound 25, N-Hexyl-2-isonicotinoylhydrazinecarbothioamide] | Inactive | 215 to 216 | > 30 | – | Urease Inhibition Activity IC50 ± SEM [1, 10]: Insoluble
O=C(NNC(=S)Nc1cccc(N=C=S)c1)c1ccncc1 [Compound 26] | – | 195 to 196 | – | – | –
O=C(NNC(=S)Nc1cccc([N+](=O)[O-])c1)c1ccncc1 [Compound 27, 2-Isonicotinoyl-N-(3-nitrophenyl) hydrazinecarbothioamide] | Inactive | – | – | – | IC50 [6]: > 30 µM; Urease Inhibition Activity IC50 ± SEM [1, 10]: Insoluble^d
CC(C)Cc1ccc(C(C)C(=O)O)cc1 (stereo not shown) [Ibuprofen, reference compound] | – | – | – | – | IC50 [3]: 11.2 ± 1.9 µg/mL (≈ 54.3 µM); Anti-Inflammatory Activity IC50 ± SD (reported) [7]: 12.97 ± 0.23 µg/mL
NNC(=O)c1ccncc1 [Isoniazid(1), Isoniazid] | Inactive | – | – | – | Urease Inhibition Activity IC50 ± SEM [1, 10]: Inactive; IC50 [8]: 28.5 ± 1.2 µM
